Activity and EC50 data for two molecules are collected here from ChEMBL document CHEMBL3880399 (2004).

In one test the test system is Mus musculus. In words: Reduction in d-amphetamine-induced hyperactivity in sc dosed mouse. Format: functional.
Another test has as its system Rattus norvegicus. In words: Antipsychotic activity in rat assessed as reduction in MK-801-induced locomotor behaviors at 1 mg/kg, ip. It is filed as functional, organism-based.
Another test deals with Homo sapiens. In words: Potentiation of levadopa-induced improvements in parkinsonian symptoms in parkinsonian patient administered orally once daily for four weeks with dose escalating once each week (30 mg on week2, 70 mg on week3, 150 mg on week 4 and 300 mg on week 5) in placebo controlled study lasting for 5 weeks measured on first day of each dose escalation. Format: functional.

Active and inactive are the calls of the source. The calls are words filed in the database; no cut-off is given here.

For `O=C(CCCN1CCC(O)(c2ccc(Cl)cc2)CC1)c1ccc(F)cc1`, the Activity result with Mus musculus is “Dose-dependent effect”.

As usually defined, the EC50 is the concentration giving half of the maximal effect. Regarding `CN1CCN(C2=Nc3cc(Cl)ccc3Nc3ccccc32)CC1` [CLOZAPINE], the outcome in the test with Rattus norvegicus was Active. For the same molecule, the EC50 in the test with Homo sapiens was 6.4 nM.
